Experiment [1] has as its target T1, Solute carrier family 2, facilitated glucose transporter member 4 (Rattus norvegicus) (UniProt P19357).
T1 sequence (whole entry): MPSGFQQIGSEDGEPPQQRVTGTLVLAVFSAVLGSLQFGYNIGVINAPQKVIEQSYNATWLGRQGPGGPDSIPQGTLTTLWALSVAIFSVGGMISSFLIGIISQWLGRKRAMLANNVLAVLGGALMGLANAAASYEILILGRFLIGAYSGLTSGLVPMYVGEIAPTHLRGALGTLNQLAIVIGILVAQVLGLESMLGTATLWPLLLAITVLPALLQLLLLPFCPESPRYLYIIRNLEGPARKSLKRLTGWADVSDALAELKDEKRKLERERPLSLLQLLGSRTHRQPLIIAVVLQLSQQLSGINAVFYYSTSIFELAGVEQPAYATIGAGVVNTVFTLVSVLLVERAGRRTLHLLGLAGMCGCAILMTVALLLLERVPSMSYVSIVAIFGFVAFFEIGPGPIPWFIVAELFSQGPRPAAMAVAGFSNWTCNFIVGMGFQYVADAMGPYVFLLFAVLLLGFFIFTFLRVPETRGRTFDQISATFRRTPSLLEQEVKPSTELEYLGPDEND
Briefly: Displacement of ATB-BMPA from rat C-terminal 6His/Myc-tagged GLUT4 expressed in HEK293 cell low density microsome assessed as ATB-BMPA binding level at 20 uM preincubated for 10 mins followed by ATB-BMPA addition measured after 10 mins relative to control. It counts as cell-based.

The subject of experiment [2] is JJN-3. Briefly: Antiproliferative activity against human JJN-3 cells transfected with GLUT4 shRNA assessed as growth inhibition at 15 uM aftter 72 hrs by trypan blue dye-based cell counting analysis. It counts as functional.
Experiment [3] concerns the target T2, Solute carrier family 2, facilitated glucose transporter member 4 (Homo sapiens) (UniProt P14672).
T2 sequence (whole entry): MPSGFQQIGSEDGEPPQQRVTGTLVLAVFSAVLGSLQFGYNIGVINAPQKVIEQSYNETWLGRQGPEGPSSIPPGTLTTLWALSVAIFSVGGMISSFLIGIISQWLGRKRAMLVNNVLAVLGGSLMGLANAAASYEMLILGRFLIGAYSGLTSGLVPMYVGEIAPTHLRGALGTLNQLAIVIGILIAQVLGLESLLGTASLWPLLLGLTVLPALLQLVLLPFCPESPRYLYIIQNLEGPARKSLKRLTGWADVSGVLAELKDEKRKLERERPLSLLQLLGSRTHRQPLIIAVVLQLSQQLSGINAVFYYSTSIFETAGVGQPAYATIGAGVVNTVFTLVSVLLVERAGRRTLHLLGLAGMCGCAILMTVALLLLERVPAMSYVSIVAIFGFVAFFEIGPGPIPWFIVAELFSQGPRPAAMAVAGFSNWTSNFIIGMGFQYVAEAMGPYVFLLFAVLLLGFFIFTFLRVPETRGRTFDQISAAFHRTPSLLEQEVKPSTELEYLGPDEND
Briefly: Antagonist activity at GLUT4 in multiple myeloma patient derived CD38+ and phyocerythrin-negative myeloma cells assessed as increase in sensitivity to ABT-199-induced cytotoxicity by measuring cell death at 10 uM after 48 hrs by CellTiter-Glo assay. A general note: Cellular ATP, detected with luciferase, serves as a proxy for viable cell number.

In experiment [4] the target is T2, Solute carrier family 2, facilitated glucose transporter member 4 (Homo sapiens). Description: Antagonist activity at GLUT4 in human […] cells assessed as increase in sensitivity to ABT-199-induced cytotoxicity by measuring cell death at 10 uM after 72 hrs by CellTiter-Glo assay. The class given is cell-based.
For experiment [5] the target is unchanged. Description: Antagonist activity at GLUT4 in human JJN-3 cells assessed as reduction in MCL-1 protein expression at 15 uM after 18 hrs by immunoblot analysis. It counts as cell-based. (In general: A western blot detects proteins with antibodies after separation by electrophoresis.)
For experiment [6] the target is unchanged. Briefly: Antagonist activity at GLUT4 in human JJN-3 cells assessed as increase in sensitivity to ABT-199-induced cytotoxicity by measuring cell death at 10 uM after 72 hrs by CellTiter-Glo assay. It counts as cell-based.
Experiment [7] shares this target. Description: Antagonist activity at GLUT4 in multiple myeloma patient derived CD38+ and phyocerythrin-negative myeloma cells assessed as increase in sensitivity to dexamethasone-induced cytotoxicity by measuring cell death at 10 uM after 48 hrs by CellTiter-Glo assay.
Experiment [8] deals with JJN-3. Briefly: Inhibition of [3H]2-deoxy-D-glucose uptake in human JJN-3 cells transfected with GLUT4 shRNA preincubated for 5 to 6 mins followed by [3H]2-deoxy-D-glucose addition measured after 4 to 6 mins. It counts as functional, cell-based.
Experiment [9] deals with T3, Solute carrier family 2, facilitated glucose transporter member 8 (Homo sapiens, UniProt Q9NY64).
T3 sequence (Q9NY64 whole entry): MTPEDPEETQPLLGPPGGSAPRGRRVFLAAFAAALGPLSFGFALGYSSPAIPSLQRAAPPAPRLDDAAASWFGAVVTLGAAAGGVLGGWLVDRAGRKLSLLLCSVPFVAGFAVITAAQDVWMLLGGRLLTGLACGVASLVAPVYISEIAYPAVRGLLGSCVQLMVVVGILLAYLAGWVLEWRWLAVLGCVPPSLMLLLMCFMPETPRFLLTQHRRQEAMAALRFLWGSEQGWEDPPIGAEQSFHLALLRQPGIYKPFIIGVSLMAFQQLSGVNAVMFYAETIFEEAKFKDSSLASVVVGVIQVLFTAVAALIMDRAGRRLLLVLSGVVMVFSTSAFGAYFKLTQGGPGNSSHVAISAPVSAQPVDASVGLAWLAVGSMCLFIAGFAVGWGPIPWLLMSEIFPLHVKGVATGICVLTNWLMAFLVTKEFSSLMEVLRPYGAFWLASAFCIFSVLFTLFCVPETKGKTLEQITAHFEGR
Description: Antagonist activity at human GLUT8 expressed in HEK293 cells transfected with GLUT1 shRNA assessed as inhibition of [3H]2-deoxy-D-glucose uptake preincubated for 5 mins followed by [3H]2-deoxy-D-glucose addition and measured after 6 mins. It counts as cell-based.

Active and inactive are the calls of the source. No cut-off for these calls is given here.

Turning to `COc1ccc(CC(=O)N(Cc2ccncc2)Cc2cccc(OCCc3ccc(F)cc3)c2)cc1`, in experiment [1], the Activity turned out to be 64%. In the experiment with JJN-3 [2], the outcome was inactive. Moreover, the inhibition result (in experiment [3]; in experiment [4]; in experiment [6]; in experiment [7]; in the experiment on JJN-3 [8]) was “Active” in each case. The inhibition entry in experiment [5] is “inactive”. The IC50 (as a rule, the concentration needed to halve the response being measured) in experiment [9] was above 100 µM.

(Values after ChEMBL document CHEMBL4130400, “Development of GLUT4-selective antagonists for multiple myeloma therapy” (Eur J Med Chem, 2017).)
